In patent US9981956B2, “Small molecule inhibitors of fibrosis” (THE CALIFORNIA INSTITUTE FOR BIOMEDICAL RESEARCH, priority 2013, dated 2018):
Converted amounts (≈) assume the structure as drawn. “And” between values parts separate entries of the source, which are not always exact repeats. Equal values may be shown once. Read-outs that look alike come from different tables or passages of the source.

What was measured:
[1] = test system: fibroblast to myofibroblast transdifferentiation (primary human lung fibroblasts and primary rodent HSCs); assay: High content imaging and western based assay of fibroblast to myofibroblast transdifferentiation (α-SMA); format: cell-based; conditions: graded, TGF-β induced fibroblast to myofibroblast transdifferentiation
Excerpt: A high content imaging assay, based on α-SMA staining and cell morphological changes associated with fibroblast to myofibroblast transdifferentiation, was established using primary human lung fibroblasts and primary rodent HSCs. Conditions, involving serum starvation and subsequent TGF-β treatment, were identified that facilitate robust in vitro transdifferentiation in a miniaturized (384 well plate) format that is amenable to high throughput small molecule screening. A selective ALK-5 TGF-β1 receptor inhibitor (SB-431542) was used as a positive control. […] This assay was used to identify a hit compound (itraconazole) and was used to evaluate focused panels of itraconazole analogues generated from medicinal chemistry efforts.
The activity of Itraconazole and its analogues was confirmed by analyzing changes in gene expression of multiple genes associated with fibroblast to myofibroblast transdifferentiation using biochemical methods (i.e., Western blot and RT-PCR). These 4-day assays were used to evaluate sets of 6 compounds at a time in 4-point dose response fashion.
After 24 hour incubation, cells were treated with the indicated doses of itraconazole for 48 hours in the presence of 10 ng/mL of TGF-β1 in hepatic stellate medium. Following fixation and staining with an anti smooth muscle actin antibody, cell morphology was analyzed with a Cellomics cell insight imaging reader (FIG. 1 for representative images). Cells were analyzed for mean cellular area of a-SMA staining (FIG. 5a) or mean fluorescence intensity of SMA staining (FIG. 5b).
After 24 incubation, medium was changed to assay medium containing TGF-β1 (10 ng/mL) and simultaneously treated with itraconazole (10 μM), SB431542 (10 μM) or vehicle control (FIG. 6).

[2] = test system: Candida albicans (ATCC 10231); assay: Candida albicans anti-fungal MIC potency determination; format: cell-based
Method: The wild type Candida albicans (ATCC 10231) was used and Fluconazole, amphotericin B, itraconazole and terbinafine were purchased from Sigma and used as positive controls.
The highest assay concentration for all test compounds and fluconazole was 100 μM. Fluconazole was also tested at the highest concentration of 64 μg/ml, and amphotercin B and terbinafine at 16 and 64 μg/ml. The test compounds were in DMSO stock solution at a concentration of 10 mM. Two stock solutions in DMSO were prepared for fluconazole at 10 mM and 6.4 mg/ml. Amphotericin B and terbinafine stock solutions in DMSO were prepared at 1.6 and 6.4 mg/ml.
Serial dilution of 100× stock solutions: 4 μl of stock solution was added into 196 μl of RPMI1640 (MOPS buffered and free of HEPES and sodium bicarbonate) in the first well of a row of a sterile u-bottom 96-well plate. The rest of the wells was filled with 100 μl RPMI1640. The 2-fold serial dilution was made sequentially by transferring 100 μl solution to the next well and mixing by pipetting, until 11th well. The extra 100 μl in 11th well was discarded. Therefore, the compound wells contained 100 μl of 2× of testing concentrations of drugs in RPMI1640. The 12th well was filled with only 100 μl RPMI1640.
C. albicans 3147 (ATCC 10231) glycerol frozen stock was streaked on Sabouraud dextrose agar (SDA). The plate was incubated at 35° C. ambient atmosphere for 20 h. Single colonies were suspended into sterile saline until turbidity reached 0.1 (1-5×10^6 CFU/ml) using a Siemens turbidity meter. This suspension was diluted 50× in RPMI1640 in a 15 ml conical, and then it was further diluted 20× in RPMI1640 in a 50 ml conical. This gave 1-5×10^3 CFU/ml suspension and was used as inoculum. The cell density in inoculum was plate-counted to be 4.94×10^3 CFU/ml.
The plates were incubated at 35° C. in ambient atmosphere. The photos were taken at 24 h and 48 h. The MIC end points for fluconazole and amphotericin B were read according to the M27-A3 protocol (Reference Method for Broth Dilution Antifungal Susceptibility Testing of Yeasts; Approved Standard-Third Edition, M27-A3 standard published Jan. 1, 2008 by Clinical and Laboratory Standards Institute). The MIC for compounds for test cmpds and terbinafine (not mentioned in M27-A3 protcol) were read as if they were azoles.

Cyp3A4 = Cyp3A4 (Homo sapiens, UniProt P08684); assay: Cyp reversible inhibition assay (human liver microsomes)
Chain of Cyp3A4 (P08684 whole entry): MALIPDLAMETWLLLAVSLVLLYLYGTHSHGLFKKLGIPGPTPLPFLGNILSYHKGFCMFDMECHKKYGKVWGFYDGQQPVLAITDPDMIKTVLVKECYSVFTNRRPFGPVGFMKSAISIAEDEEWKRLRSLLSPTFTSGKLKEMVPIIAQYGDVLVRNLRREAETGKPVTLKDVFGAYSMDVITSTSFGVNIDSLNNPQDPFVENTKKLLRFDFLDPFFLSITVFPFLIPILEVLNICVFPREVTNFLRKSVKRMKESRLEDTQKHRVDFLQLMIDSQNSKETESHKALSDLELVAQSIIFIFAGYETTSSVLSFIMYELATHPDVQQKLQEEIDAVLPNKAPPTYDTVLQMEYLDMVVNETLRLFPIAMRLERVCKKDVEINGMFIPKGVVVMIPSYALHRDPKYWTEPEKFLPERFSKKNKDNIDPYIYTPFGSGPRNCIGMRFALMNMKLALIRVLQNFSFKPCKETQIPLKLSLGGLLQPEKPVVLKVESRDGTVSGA
Method: The purpose of this assay was to determine reversible inhibition of Cyp enzyme with a given compound using a substrate probe turnover as the surrogate for inhibition. This was done with human liver microsomes rather an isolated enzyme to account for metabolites of parent drug leading to a potential drug-drug interaction through Cyp inhibition. The substrate turnover (for example conversion of midazolam to hydroxyl midazolam) was monitored by LCMSMS (Q1/Q2=342.2/203.2). Test compounds were tested in a 7-point dose response curve starting from 50 μM to 50 nM (˜3-fold dilution series).
The detailed protocol was as follows: • Prepared test compounds and standard inhibitors working solution (100×) • Pulled microsomes out of the −80° C. freezer to thaw on ice, labeled with the date and put back to freezer immediately after using. • Added 20 μL of the substrate solutions to corresponding wells. • Added 20 μL PB to Blank wells. • Added 2 μL of the test compounds and positive control working solution to corresponding wells. • Added 2 μL MeOH to No Inhibitor wells and Blank wells. • Prepared HLM working solution. • Added 158 μL of the HLM working solution to all wells of incubation plate. • Pre-warmed the plate for about 10 min at 37° C. water bath. • Prepared NADPH cofactor solution. • Added 20 μL NADPH cofactor to all incubation wells. • Mixed and incubated for 10 minutes at 37° C. water bath. • At the time point, terminated the reaction by adding 400 μL cold stop solution (200 ng/mL Tolbutamide in ACN). • Centrifuged the samples at 4000 rpm for 20 minutes to precipitate protein. • Transferred 200 μL supernatant to 200 μL HPLC water and shook for 10 min. • Analyzed samples by LC/MS/MS.

[3] = ATCC10231, 24 h, read-out: C. Albicans MIC90 at 24 h
[4] = ATCC10231, 48 h, read-out: C. Albicans MIC90 at 48 h
[5] = Cyp 3A4 midazolam LCMS IC50, human liver microsomes, substrate midazolam
[6] = Cyp 3A4 testosterone LCMS IC50, human liver microsomes, substrate testosterone

| SMILES | EC50 [1] | MIC90 [2, 3] | MIC90 [2, 4] | IC50 (Cyp3A4; [5]) | IC50 (Cyp3A4; [6]) |
| --- | --- | --- | --- | --- | --- |
| CCC(C)n1ncn(-c2ccc(N3CCN(c4ccc(OC[C@@H]5CO[C@@](Cc6cccnc6)(c6ccc(Cl)cc6Cl)O5)cc4)CC3)cc2)c1=O (stereo partly drawn) [Compound 26] | 0.5 to 5 µM | > 100 µM | > 100 µM | 0.18 µM | 0.283 µM |
| CCC(C)n1cnn(-c2ccc(N3CCN(c4ccc(OC[C@@H]5CO[C@@](Cn6ccnn6)(c6ccc(F)cc6F)O5)cc4)CC3)cc2)c1=O (stereo partly drawn) [Compound 2] | 0.5 to 5 µM | – | – | – | > 30 µM |
| CCC(C)n1ncn(-c2ccc(N3CCN(c4ccc(OC[C@@H]5CO[C@@](Cn6nccn6)(c6ccccc6C#N)O5)cc4)CC3)cc2)c1=O (stereo partly drawn) [Compound 74] | 0.5 to 5 µM | – | – | > 50 µM | > 50 µM |
| CCC(C)n1ncn(-c2ccc(N3CCN(c4ccc(OC[C@@H]5CO[C@@](CCn6cncn6)(c6ccc(Cl)cc6Cl)O5)cc4)CC3)cc2)c1=O (stereo partly drawn) [Compound 100] | < 0.5 µM | 0.781 µM (≈ 0.562 µg/mL) | 1.56 µM (≈ 1.12 µg/mL) | 0.372 µM | 0.545 µM |
| CCC(C)n1ncn(-c2ccc(N3CCN(c4ccc(OC[C@@H]5CO[C@@](Cc6ccnnc6)(c6ccccc6)O5)cc4)CC3)cc2)c1=O (stereo partly drawn) [Compound 84] | 0.5 to 5 µM | > 100 µM | > 100 µM | 2.55 µM and 2.35 µM | 1.77 µM |
| CCC(C)n1ncn(-c2ccc(N3CCN(c4ccc(OC[C@@H]5CO[C@@](Cn6nccn6)(c6ccc(Cl)c(Cl)c6)O5)cc4)CC3)cc2)c1=O (stereo partly drawn) [Compound 36] | 5 to 30 µM | > 100 µM | > 100 µM | > 50 µM | > 50 µM |
| CCC(C)n1ncn(-c2ccc(N3CCN(c4ccc(OC[C@@H]5CO[C@@](Cc6cncnc6)(c6ccc(Cl)cc6Cl)O5)cc4)CC3)cc2)c1=O (stereo partly drawn) [Compound 21] | 0.5 to 5 µM | > 100 µM | > 100 µM | 0.144 µM | 0.12 µM |
| CCC(C)n1ncn(-c2ccc(N3CCN(c4ccc(OC[C@@H]5CO[C@@](Cn6nccn6)(c6ccc(Cl)cc6Cl)O5)cc4F)CC3)cc2)c1=O (stereo partly drawn) [Compound 54] | < 0.5 µM | > 100 µM | > 100 µM | > 50 µM | > 50 µM |
| CCC(C)n1ncn(-c2ccc(N3CCN(c4ccc(OC[C@@H]5CO[C@@](Cn6nccn6)(c6ccccc6C)O5)cc4)CC3)cc2)c1=O (stereo partly drawn) [Compound 41] | 0.5 to 5 µM | > 100 µM | > 100 µM | > 50 µM | > 50 µM |
| CCC(C)n1ncn(-c2ccc(N3CCN(c4ccc(OC[C@@H]5CO[C@@](Cn6nccn6)(c6ccc(Cl)cc6Cl)O5)c(C#N)c4)CC3)cc2)c1=O (stereo partly drawn) [Compound 79] | 0.5 to 5 µM | > 100 µM | > 100 µM | > 50 µM | > 50 µM |
| CCC(C)n1ncn(-c2ccc(N3CCN(c4ccc(OC[C@@H]5CO[C@@](CCCn6cncn6)(c6ccc(Cl)cc6Cl)O5)cc4)CC3)cc2)c1=O (stereo partly drawn) [Compound 101] | 5 to 30 µM | > 100 µM | > 100 µM | – | – |
| CCC(C)n1ncn(-c2ccc(N3CCN(c4ccc(OC[C@@H]5CO[C@@](Cn6nccn6)(c6ccc(Cl)cc6Cl)O5)c(F)c4)CC3)cc2)c1=O (stereo partly drawn) [Compound 49] | 0.5 to 5 µM | > 100 µM | > 100 µM | > 50 µM | > 50 µM |
| CCC(C)n1ncn(-c2ccc(N3CCN(c4ccc(OC[C@@H]5CO[C@@](Cn6nccn6)(c6ccc(Cl)cc6)O5)cc4)CC3)cc2)c1=O (stereo partly drawn) [Compound 30] | 0.5 to 5 µM | > 100 µM | > 100 µM | > 50 µM | > 50 µM |
| CCC(C)n1cnn(-c2ccc(N3CCN(c4ccc(OC[C@@H]5CO[C@@](Cn6cncn6)(c6ccc(F)cc6F)O5)cc4)CC3)cc2)c1=O (mixture of isomers) [Compound 1] | 0.5 to 5 µM | – | – | – | 4.5 µM |
| CCC(C)n1ncn(-c2ccc(N3CCN(c4ccc(OC[C@@H]5CO[C@@](Cn6nccn6)(c6ccccn6)O5)cc4)CC3)cc2)c1=O (stereo partly drawn) [Compound 75] | 5 to 30 µM | – | – | – | – |
| CCC(C)n1ncn(-c2ccc(N3CCN(c4ccc(OC[C@@H]5CO[C@@](Cn6nccn6)(c6ccc(C)cc6)O5)cc4)CC3)cc2)c1=O (stereo partly drawn) [Compound 40] | 0.5 to 5 µM | – | – | – | – |
| CCC(C)n1ncn(-c2ccc(N3CCN(c4ccc(OC[C@@H]5CO[C@@](Cn6nccn6)(c6ccc(C#N)cc6)O5)cc4)CC3)cc2)c1=O (stereo partly drawn) [Compound 37] | 0.5 to 5 µM | – | – | – | – |
| CCC(C)n1ncn(-c2ccc(N3CCN(c4ccc(OC[C@@H]5CO[C@@](Cn6nccn6)(c6ncccn6)O5)cc4)CC3)cc2)c1=O (stereo partly drawn) [Compound 56] | 5 to 30 µM | – | – | – | – |
| CCC(C)n1ncn(-c2ccc(N3CCN(c4ccc(OC[C@H]5CO[C@@](Cn6cncn6)(c6ccc(F)cc6F)O5)cc4)CC3)cc2)c1=O (mixture of isomers) [Compound 7] | 5 to 30 µM | – | – | – | – |
| CCC(C)n1ncn(-c2ccc(N3CCN(c4ccc(OC[C@@H]5CO[C@@](Cn6nccn6)(c6ccc(Cl)cc6Cl)O5)cc4)CC3)nc2)c1=O (stereo partly drawn) [Compound 24] | 0.5 to 5 µM | – | – | – | > 30 µM |
| CCC(C)n1ncn(-c2ccc(N3CCN(c4ccc(OC[C@@H]5CO[C@@](Cn6nccn6)(c6cnccn6)O5)cc4)CC3)cc2)c1=O (stereo partly drawn) [Compound 57] | 5 to 30 µM | – | – | – | – |
| CCC(C)n1ncn(-c2ccc(N3CCN(c4ccc(OC[C@@H]5CO[C@@](Cn6nccn6)(c6ccncc6)O5)cc4)CC3)cc2)c1=O (stereo partly drawn) [Compound 83] | 5 to 30 µM | – | – | – | – |
